# Measured values reported in patent publication US20170000112A1, “METHOD OF PRESERVING CUT ROSES DURING TRANSPORTATION AND STORAGE AND SHIPMENT KIT CONTAINING CUT ROSES” (priority 2013, published 2017).
# How the values were obtained:
# cut roses [1] = experiment: Vase life of cut roses after 14 days simulated dry refrigerated transport (Examples 1 and 2); format: in vivo, rose; details: flower heads dipped 3 s in 80 ppm BA, 14 days dry transport at 2° C.
# Description: Freshly cut red roses (Red Desire') were obtained from a greenhouse in the Netherlands. These flowers were randomly divided into three different sets . Within 4 hours of cutting, one set of flowers (set A) was subjected to a preservation treatment that involved dipping of the flower heads into an aqueous solution of 80 ppm 6-benzylaminopurine (BA) in tap water for 3 seconds. Immediately after the preservation treatment, each set of flowers was bunched and sleeved (6 flowers per sleeved bunch) after the ends of the flower stems had been cut off, and in total 108 flowers of each set were kept 24 hours at 2° C. under dark conditions in buckets (54 stems per bucket) with the flower stems immersed in 2 liters of water containing 1 ml/l of a flower pre-treatment product ([…]® Grow 20). Following this pre-treatment, the sleeved flower bunches of set A were removed from the buckets and packaged without any external water supply in a carton box (l×b×h=1.0×0.4×0.2 m). The carton box contained 18 sleeved flower bunches. One of the other two sets of flowers (Control) was packaged in the same way. The remaining set of flowers (Reference) was not packaged dry into a carton box, but immediately subjected to the sequence of storage and display conditions described in Table 1. [table] Before the refrigerated storage and the home display the ends of the flower stems were cut off. The packaged flowers (sleeved and in a carton box) belonging to Set A and the Control set were subjected to simulated refrigerated transport under dry, dark conditions for 14 days at 2° C. before also being subjected to the sequence of storage and display conditions described in Table 1. Before the refrigerated storage stage the BA concentrations in the flower heads were analyzed. In addition, the vase life of the flowers was assessed by an expert panel during the home display period. Example 1 was repeated, except that this time, instead of using cut roses obtained from a Dutch green house, cut roses that had been air transported under dry conditions from Kenya to the Netherlands were used. Three different types of cut red roses were used in this study, namely 'Hot Blood', 'Rhodos' and 'Incredible'.
# cut red roses [2] = experiment: Colour retention of red roses after 11 days on the vase (Examples 1 and 2); format: in vivo, rose; details: dipped in 80 ppm BA
# cut roses [3] = experiment: Vase life and leaf quality after 9 days simulated dry transport (Examples 3 and 4); format: in vivo, rose; details: for Vase life: dipped in 80 ppm BA, 9 days dry transport; for Leaf quality: visual score after 12 days on the vase, 1=poor, 5=good
# From the text: Example 1 was repeated, except that this time no Reference set was used, i.e. the study used two sets of flowers that were both transported without water supply (dry). Furthermore, the cut roses used in the study had been air transported under dry conditions from Colombia to the Netherlands. Bunches containing 4 flowers of each of three different types of roses (‘Red Intuition’ (red), ‘Citran’ (yellow), ‘Vendela’ (white) were used in this study. The duration of simulated transportation was reduced from 14 to 9 days and the duration of shop display was increased from 2 to 3 days.
# Besides the vase life of the flowers the expert panel also scored visual leaf quality after 12 days on the vase (1=poor, 5=good). The BA concentration in the flower heads was not analyzed in this study.
# Example 3 was repeated, except that this time the following three different types of roses were used in the study: • ‘Freedom’ (red) • ‘Bonanza’ (peach) • ‘Sandra’ (pink)
# cut red roses [4] = experiment: Vase life, dipped/dry versus BA in bucket water, 24 hours at 2° C. (Example 5); format: in vivo, rose
# From the text: Three different types of cut red roses were used in this study, namely ‘Hot Blood’, ‘Rhodos’ and ‘Incredible’. For each type flowers were randomly divided into four different sets.
# One set of flowers (set A) was subjected to a preservation treatment that involved dipping of the flower heads into an aqueous solution of 80 ppm 6-benzylaminopurine (BA) in tap water for 3 seconds.
# Immediately after the preservation treatment of set A, each set of flowers was bunched and sleeved (10 flowers per sleeved bunch) after the ends of the flower stems had been cut off, and in total 20 flowers of each set were kept for 4 hours at 20° C. under dark conditions in buckets (60 stems per bucket) with the flower stems immersed in 2 liters of water containing 1 ml/l of a flower pre-treatment product (Chrysal® Grow 20).
# Following this pre-treatment, the sleeved flower bunches of set A were removed from the buckets and packaged without any external water supply in a carton box (l×b×h=1.0×0.4×0.2 m). The carton box contained 6 sleeved flower bunches.
# One of the other three sets of non-dipped flowers(Control) was packaged in the same way, i.e. in carton boxes without external water supply.
# The remaining two sets of non-dipped flowers (sets B and C) were introduced into buckets (20 stems per bucket) that each contained 2 liters of water.
# The bucket water of set B contained 7 ppm BA. The bucket water of set C contained 7 ppm BA as well as 5 ml/l of Chrysal® Clear Professional 2 (CCP2). This product is based on sugars and acidifier, while biocides are present to protect these active ingredients against bacterial attack.
# The four sets of roses were kept at 2° C. under dark conditions for 24 hours, following which each set was transferred into buckets (60 stems per bucket) that contained 2 liters of water to which 5 ml/l Chrysal® Clear Professional 2 had been added. Before introducing the cut flowers into the buckets, the ends of the flower stems were cut off. The buckets holding the sleeved cut flowers were kept for 4 days under dark, refrigerated (2° C.) conditions, and subsequently for 2 days at 20° C. under daylight conditions (12 hours 1000 lux and 12 hours dark).
# Next, for each of the three different type of cut red roses the two bunches of 10 cut flowers from each of the sets were introduced in vases, each holding 1 liter of water to which 10 g/l Chrysal® Clear had previously been added. Before introducing the cut flowers into the vases, the ends of the flower stems were cut off. The vases holding the flowers were kept at 20° C. under daylight conditions (12 hours 1000 lux and 12 hours dark).
# The quality of the cut flowers was assessed at regular intervals by an expert panel and from these assessments the average vase life was determined for the cut flowers of each of the 4 sets.
# The letters behind the numerical scores in Table 8 indicate to which extent the difference between the 4 scores for a given set of cut flowers are statistically significant (at a P-value of 0.05). Scores that are followed by the same latter are not statistically significant.
# cut red roses [5] = experiment: Vase life, dipped/dry versus BA in bucket water, 8 days at 2° C. (Example 6); format: in vivo, rose
# Description: Example 5 was repeated, except that this time the sets of cut flowers were kept under refrigerated and dark conditions for 8 days instead of 24 hours.
# [6] = system: flower spikes of gladiolus and carnation; details: stems immersed in 10, 30 and 75 ppm solution; spikes previously wilted dry for 4 hours; cited from earlier work
# cut rose flowers = details: sprayed or held in solution prior to simulated home conditions; cited from earlier work
# rose flower buds = details: 350 mg/L (ca. 1 mM) solution; preliminary experiments, data not shown; cited from earlier work
structure (smiles),measurement,setting,value
"c1ccc(CNc2ncnc3nc[nH]c23)cc1 [BA, 6-benzylaminopurine]",Vase life,cut roses [1]; 'Hot Blood' (Kenya),13.9 days
same,Vase life,cut roses [1]; 'Incredible' (Kenya),13.0 days
same,Vase life,cut roses [1]; 'Red Desire',12.8 days
same,Vase life,cut roses [1]; 'Rhodos' (Kenya),14.9 days
same,Colour of the red roses after 11 days on the vase,"cut red roses [2]; 'Hot Blood', control showed blueing/darkening",retained most of their original red colour
same,Colour of the red roses after 11 days on the vase,"cut red roses [2]; 'Incredible', control showed blueing/darkening",retained most of their original red colour
same,Colour of the red roses after 11 days on the vase,"cut red roses [2]; 'Red Desire', control showed bluing/darkening",retained most of their original red colour
same,Colour of the red roses after 11 days on the vase,"cut red roses [2]; 'Rhodos', control showed blueing/darkening",retained most of their original red colour
same,Vase life,cut roses [3]; 'Bonanza' (peach),14.5 days
same,Vase life,"cut roses [3]; 'Citran' (yellow, Colombia)",12.5 days
same,Vase life,cut roses [3]; 'Freedom' (red),18.8 days
same,Vase life,"cut roses [3]; 'Red Intuition' (red, Colombia)",9.6 days
same,Vase life,cut roses [3]; 'Sandra' (pink),17.6 days
same,Vase life,"cut roses [3]; 'Vendela' (white, Colombia)",13.0 days
same,Leaf quality,"cut roses [3]; Example 3 (Red Intuition, Citran, Vendela)",3.0
same,Leaf quality,"cut roses [3]; Example 4 (Freedom, Bonanza, Sandra)",4.0
same,Vase life,"cut red roses [4]; 'Hot Blood', non-dipped, wet, stems in bucket water containing 7 ppm BA, 24 hours at 2° C.",11.2 days
same,Vase life,"cut red roses [4]; 'Hot Blood', set A, flower heads dipped in 80 ppm BA, dry in carton box 24 hours at 2° C.",16.2 days
same,Vase life,"cut red roses [4]; 'Incredible', non-dipped, wet, stems in bucket water containing 7 ppm BA, 24 hours at 2° C.",11.1 days
same,Vase life,"cut red roses [4]; 'Incredible', set A, flower heads dipped in 80 ppm BA, dry in carton box 24 hours at 2° C.",17.2 days
same,Vase life,"cut red roses [4]; 'Rhodos', non-dipped, wet, stems in bucket water containing 7 ppm BA, 24 hours at 2° C.",9.4 days
same,Vase life,"cut red roses [4]; 'Rhodos', set A, flower heads dipped in 80 ppm BA, dry in carton box 24 hours at 2° C.",13.9 days
same,Vase life of the dipped set versus the non-dipped sets,"cut red roses [4]; each of the rose types, P-value of 0.05, 24 hours at 2° C.",significantly longer vase life
same,Average vase life of the dipped set versus the non-dipped sets,"cut red roses [5]; 'Hot Blood', P-value of 0.05, 8 days at 2° C.","higher than that of the non-dipped sets, but the difference with the control set and set C was not statistically significant"
same,Vase life,"cut red roses [5]; 'Hot Blood', non-dipped, wet, stems in bucket water containing 7 ppm BA, 8 days at 2° C.",7.3 days
same,Vase life,"cut red roses [5]; 'Hot Blood', set A, flower heads dipped in 80 ppm BA, dry in carton box 8 days at 2° C.",11.8 days
same,Vase life,"cut red roses [5]; 'Incredible', non-dipped, wet, stems in bucket water containing 7 ppm BA, 8 days at 2° C.",10.4 days
same,Vase life,"cut red roses [5]; 'Incredible', set A, flower heads dipped in 80 ppm BA, dry in carton box 8 days at 2° C.",14.8 days
same,Vase life,"cut red roses [5]; 'Rhodos', non-dipped, wet, stems in bucket water containing 7 ppm BA, 8 days at 2° C.",8.2 days
same,Vase life,"cut red roses [5]; 'Rhodos', set A, flower heads dipped in 80 ppm BA, dry in carton box 8 days at 2° C.",13.5 days
same,Vase life of the dipped set versus the non-dipped sets,"cut red roses [5]; two of the rose types ('Rhodos', 'Incredible'), P-value of 0.05, 8 days at 2° C.",significantly longer vase life
same,Effect on vase life of flower spikes,[6],extended the vase life
same,Effect on rose vase life,cut rose flowers,did not benefit on rose vase life
C=C1C[C@]23C[C@@]1(O)CC[C@H]2[C@@]12C=C[C@H](O)[C@](C)(C(=O)O1)[C@H]2[C@@H]3C(=O)O [GA3],Effect on rose flower vase-life when applied as a spray,rose flower buds,optimal for improving rose flower vase-life
"c1coc(CNc2ncnc3[nH]cnc23)c1 [KI, kinetin]",Effect on rose vase life,cut rose flowers,did not benefit on rose vase life
